In patent US8846704B2, “Thiopyrimidine-based compounds and uses thereof” (YM Biosciences Austraila Pty Ltd, priority 2007, dated 2014):

Legend:
human JAK2 = molecular target: T1, human JAK2 (Homo sapiens, UniProt O60674); assay: Alphascreen tyrosine kinase enzyme assay, JAK2 kinase domain; type: biochemical; conditions: read-out: JAK2 IC50_nM
T1 construct: The kinase domain of human JAK2 was amplified; GST (N); made in house; host or cells: Sf9 insect cells (baculovirus)
How it was run: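 JAK2 kinase domain expressed in baculovirus/Sf9 and glutathione-affinity purified. Compounds (final […]) pre-incubated 20 min with enzyme in 10 mM HEPES pH 7.5, MgCl2, NaCl, vanadate, 0.1% Tween 20.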

human JAK3 = molecular target: T2, human JAK3 (Homo sapiens, UniProt P52333); assay: Alphascreen tyrosine kinase enzyme assay, JAK3 kinase domain; type: biochemical; conditions: read-out: JAK3 IC50_nM
T2 construct: The kinase domain of human JAK3 was amplified; GST (N); made in house; host or cells: Sf9 insect cells (baculovirus)
How it was run: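 GST-affinity-purified human JAK3 kinase domain (baculovirus/Sf9) was pre-incubated 20 min with compound ([…]) in HEPES pH 7.5 buffer with MgCl2, vanadate and Tween 20. Biotinylated peptide substrate ([…]) and ATP were then added; phosphotyrosine was detected by AlphaScreen PY100 acceptor and streptavidin donor beads after 2–3 h.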

[1] = molecular target: T3, BaF3 TELJAK2 cells (BafT_J2) (Homo sapiens, UniProt O60674); assay: Cellular screening, BaF3 TEL:JAK2 cells, Alamar Blue; type: cell-based; conditions: 40 hr, read-out: BafT_J2 IC50_nM
T3 construct: fused on or other part: TEL (ETV6) N-terminal part, coding nucleotides 1-487, serves as the oligomerising partner; It is fused through a Sal I site to the JAK2 kinase domain and expressed from pTRE2 in BaF3 cells bearing pTET-off; P41212 (Transcription factor ETV6)
How it was run: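 Tet-off BaF3 cells carrying a TEL (nt 1-487)–JAK2 kinase-domain fusion, grown factor-independently in DMEM with 10% Tet-approved FBS without WEHI 3B medium. Compounds were diluted to 20 μM in screening plates, and cells (50,000–200,000 cell/mL at 1.1×) were incubated 40 hr at 37 °C, 5% CO2. Alamar Blue was then added for 4-6 hours; read at 544 nm.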

BaF3 wild-type cells = assay: Cellular screening, BaF3 wild-type cells, Alamar Blue; type: cell-based; conditions: Mus musculus, 40 hr, read-out: BAF3wt IC50_nM
How it was run: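 Compounds, screened from dilution plates at 20 μM, were added as 10× final stocks to cells grown in DMEM/10% FCS/10% WEHI 3B conditioned medium. Cells were seeded at 1.1× final (50,000–200,000 cells/mL) and incubated 40 hr at 37° C, 5% CO2. Viability was read at 544 nm after a further 4–6 hours with Alamar Blue.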

CTLL2 = assay: Cellular screening, CTLL2 cells, Alamar Blue; type: cell-based; conditions: Mus musculus, CTLL-2, read-out: CTLL2 IC50_nM
How it was run: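 Viability is read with Alamar Blue at 544 nm, the dye added for the final 4-6 hours. Compounds were incubated for 40 hr with CTLL2 cells taken from late-log-phase culture, at 37° C in 5% CO2.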

T3 sequence (O60674 whole entry, change not shown, the tested form may be a part): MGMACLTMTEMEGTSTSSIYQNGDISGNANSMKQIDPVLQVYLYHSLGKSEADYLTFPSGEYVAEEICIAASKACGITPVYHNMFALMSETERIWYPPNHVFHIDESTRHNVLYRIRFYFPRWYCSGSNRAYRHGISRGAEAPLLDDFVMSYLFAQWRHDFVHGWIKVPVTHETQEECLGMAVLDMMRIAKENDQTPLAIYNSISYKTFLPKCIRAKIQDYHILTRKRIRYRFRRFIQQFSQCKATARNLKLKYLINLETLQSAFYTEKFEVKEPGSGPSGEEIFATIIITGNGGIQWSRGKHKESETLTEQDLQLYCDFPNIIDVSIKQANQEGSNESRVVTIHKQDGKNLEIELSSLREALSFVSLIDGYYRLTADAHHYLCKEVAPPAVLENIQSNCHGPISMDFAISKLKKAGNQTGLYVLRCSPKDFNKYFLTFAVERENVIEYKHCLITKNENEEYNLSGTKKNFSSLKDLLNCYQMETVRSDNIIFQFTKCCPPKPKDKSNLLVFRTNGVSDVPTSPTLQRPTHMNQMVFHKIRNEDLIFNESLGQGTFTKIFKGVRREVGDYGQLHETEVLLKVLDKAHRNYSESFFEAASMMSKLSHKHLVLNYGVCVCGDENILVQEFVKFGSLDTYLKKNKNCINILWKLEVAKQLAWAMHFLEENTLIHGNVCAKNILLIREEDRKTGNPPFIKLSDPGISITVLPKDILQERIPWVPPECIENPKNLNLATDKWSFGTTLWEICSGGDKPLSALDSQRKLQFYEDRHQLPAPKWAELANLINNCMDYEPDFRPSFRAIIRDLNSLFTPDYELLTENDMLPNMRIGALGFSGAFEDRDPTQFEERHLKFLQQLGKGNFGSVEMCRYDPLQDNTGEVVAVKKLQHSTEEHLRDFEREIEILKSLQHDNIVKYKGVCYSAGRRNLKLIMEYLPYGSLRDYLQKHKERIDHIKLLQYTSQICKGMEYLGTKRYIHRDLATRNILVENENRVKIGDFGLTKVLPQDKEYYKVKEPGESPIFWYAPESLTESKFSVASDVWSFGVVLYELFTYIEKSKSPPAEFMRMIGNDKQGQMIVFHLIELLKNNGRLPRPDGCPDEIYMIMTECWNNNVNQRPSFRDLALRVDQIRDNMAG
T1 sequence (O60674 849-1124 limits assumed): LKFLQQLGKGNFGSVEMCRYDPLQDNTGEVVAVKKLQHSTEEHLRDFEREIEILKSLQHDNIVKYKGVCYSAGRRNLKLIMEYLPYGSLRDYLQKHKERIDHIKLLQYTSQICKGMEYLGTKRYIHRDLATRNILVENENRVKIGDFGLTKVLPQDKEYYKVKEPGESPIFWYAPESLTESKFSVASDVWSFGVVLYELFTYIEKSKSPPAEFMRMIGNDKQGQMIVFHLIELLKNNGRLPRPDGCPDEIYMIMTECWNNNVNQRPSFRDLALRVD
T2 sequence (P52333 822-1111 limits assumed): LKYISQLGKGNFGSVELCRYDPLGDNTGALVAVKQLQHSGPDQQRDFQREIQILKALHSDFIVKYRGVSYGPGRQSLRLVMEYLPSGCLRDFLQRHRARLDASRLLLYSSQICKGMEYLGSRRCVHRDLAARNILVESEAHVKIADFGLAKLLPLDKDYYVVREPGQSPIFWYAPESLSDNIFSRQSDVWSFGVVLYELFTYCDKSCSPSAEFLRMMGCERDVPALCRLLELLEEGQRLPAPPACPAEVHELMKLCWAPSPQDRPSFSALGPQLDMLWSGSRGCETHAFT

| Structure (SMILES) | IC50 (human JAK2) | IC50 (human JAK3) | GI50 [1] | IC50 (BaF3 wild-type cells) | IC50 (CTLL2) |
| --- | --- | --- | --- | --- | --- |
| C=CC(=O)Nc1ccc(Sc2ccnc(Nc3ccccc3)n2)cc1 [Compound 350, N-(4-(2-(phenylao)pyrimidin-4-ylthio)phenyl)acrylamide] | > 1 µM | < 0.1 µM | < 20 µM | > 20 µM | < 20 µM |
| C=CC(=O)Nc1ccc(Sc2ccnc(Nc3ccc(S(=O)(=O)NCCC(C)C)cc3)n2)cc1 [Compound 371, N-(4-(2-(4-(N-isopentylsulfamoyl)phenylao)pyrimidin-4-ylthio)phenyl)acrylamide] | > 1 µM | < 0.1 µM | < 20 µM | < 20 µM | < 5 µM |
| Cc1cnc(Nc2ccc(N3CCOCC3)cc2)nc1Sc1ccc(N2C(=O)C=CC2=O)cc1 [Compound 390, 1-(4-(5-methyl-2-(4-morpholinophenylao)pyrimidin-4-ylthio)phenyl)-1H-pyrrole-2,5-dione] | < 0.5 µM | < 0.1 µM | < 5 µM | < 5 µM | < 5 µM |
| COc1cc(Sc2ccnc(Nc3ccc(N4CCOCC4)cc3)n2)ccc1N [Compound 117, 4-(4-ao-3-methoxyphenylthio)-N-(4-morpholinophenyl)pyrimidin-2-ae] | > 1 µM | < 0.5 µM | < 20 µM | < 5 µM | < 20 µM |
| NC(=O)c1nccn1Cc1ccc(Sc2ccnc(Nc3ccc(N4CCOCC4)cc3)n2)cc1 [Compound 149, 1-(4-(2-(4-morpholinophenylao)pyrimidin-4-ylthio)benzyl)-1H-imidazole-2-carboxamide] | > 1 µM | < 0.5 µM | < 5 µM | < 5 µM | < 20 µM |
| C=CC(=O)Nc1ccc(Sc2ccnc(Nc3ccc(S(N)(=O)=O)cc3)n2)cc1 [Compound 352, N-(4-(2-(4-sulfamoylphenylao)pyrimidin-4-ylthio)phenyl)acrylamide] | > 1 µM | < 0.1 µM | < 20 µM | > 20 µM | < 20 µM |
| Cc1cnc(Nc2ccc(N3CCOCC3)cc2)nc1Sc1ccc(N)cc1 [Compound 126, 4-(4-aophenylthio)-5-methyl-N-(4-morpholinophenyl)pyrimidin-2-ae] | < 0.5 µM | < 0.1 µM | < 5 µM | > 20 µM | < 5 µM |
